# In the supplement of paper PMC10307832:
# Columns and labels:
# Test in all cases: relative viability (nuclei count vs DMSO), 5 days (fraction); higher = more cells survive
# EMC-BAC-2 = tested on: EMC-BAC-2
# In short: (§1)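 For relative viability, nuclei counts in treated wells were divided by those in vehicle wells. Lung cancer cell lines had been pin-tool dosed in 1536-well plates the day after seeding and cultured for 5 days, then fixed and stained in one step (final 0.05% Triton X-100, 1% formaldehyde, 1 ug/ml Hoechst) and imaged at 4×. Doses were one drug alone or a fixed anchor-drug dose plus five library-drug doses (not always all listed) in √10 steps, and values are duplicate-plate medians.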
# NCI-H1755 = tested on: NCI-H1755
# In short: as §1
# NCI-H1944 = tested on: NCI-H1944
# In short: as §1
# LC-2-ad = tested on: LC-2-ad
# In short: as §1
# NCI-H2087 = tested on: NCI-H2087
# In short: as §1
# SK-LU-1 = tested on: SK-LU-1
# In short: as §1
# SK-MES-1 = tested on: SK-MES-1
# In short: as §1
# COR-L 105 = tested on: COR-L 105
# In short: as §1
# PC-3 [JPC-3] = tested on: PC-3 [JPC-3]
# In short: as §1
# NCI-H661 = tested on: NCI-H661
# In short: as §1
# NCI-H2347 = tested on: NCI-H2347
# In short: as §1
# NCI-H2085 = tested on: NCI-H2085
# In short: as §1
# CAL-12T = tested on: CAL-12T
# In short: as §1
# LK-2 = tested on: LK-2
# In short: as §1
# NCI-H1793 = tested on: NCI-H1793
# In short: as §1
# H3255 = tested on: H3255
# In short: as §1
# NCI-H2228 = tested on: NCI-H2228
# In short: as §1
# NCI-H1651 = tested on: NCI-H1651
# In short: as §1
# NCI-H1915 = tested on: NCI-H1915
# In short: as §1
# NCI-H1437 = tested on: NCI-H1437
# In short: as §1
# EKVX = tested on: EKVX
# In short: as §1
# LXF-289 = tested on: LXF-289
# In short: as §1
# NCI-H1395 = tested on: NCI-H1395
# In short: as §1
smiles,measurement,setting,value
Cc1cnc(-c2cnc(NCCNc3ccc(C#N)cn3)nc2-c2ccc(Cl)cc2Cl)[nH]1 + Cc1cc(Nc2cc(N3CCN(C)CC3)nc(Sc3ccc(NC(=O)C4CC4)cc3)n2)n[nH]1 [Tozasertib] (partner 0.1 µM),relative viability,EMC-BAC-2; first compound 0.08 µM,0.313
same,relative viability,EMC-BAC-2; first compound 0.253 µM,0.261
same,relative viability,EMC-BAC-2; first compound 0.8 µM,0.252
same,relative viability,EMC-BAC-2; first compound 2.53 µM,0.273
same,relative viability,NCI-H1755; first compound 0.08 µM,0.585
same,relative viability,NCI-H1755; first compound 0.253 µM,0.521
same,relative viability,NCI-H1755; first compound 0.8 µM,0.595
same,relative viability,NCI-H1755; first compound 2.53 µM,0.539
same,relative viability,NCI-H1944; first compound 0.08 µM,0.253
same,relative viability,NCI-H1944; first compound 0.8 µM,0.254
same,relative viability,NCI-H1944; first compound 2.53 µM,0.252
same,relative viability,LC-2-ad; first compound 0.08 µM,0.439
same,relative viability,LC-2-ad; first compound 0.253 µM,0.392
same,relative viability,LC-2-ad; first compound 2.53 µM,0.477
same,relative viability,NCI-H2087; first compound 0.08 µM,0.249
same,relative viability,NCI-H2087; first compound 0.253 µM,0.203
same,relative viability,NCI-H2087; first compound 0.8 µM,0.211
same,relative viability,NCI-H2087; first compound 2.53 µM,0.128
same,relative viability,SK-LU-1; first compound 0.08 µM,0.314
same,relative viability,SK-LU-1; first compound 0.253 µM,0.348
same,relative viability,SK-LU-1; first compound 0.8 µM,0.426
same,relative viability,SK-LU-1; first compound 2.53 µM,0.535
same,relative viability,SK-MES-1; first compound 0.08 µM,0.964
same,relative viability,SK-MES-1; first compound 0.253 µM,0.854
same,relative viability,SK-MES-1; first compound 0.8 µM,0.999
same,relative viability,SK-MES-1; first compound 2.53 µM,0.861
same,relative viability,COR-L 105; first compound 0.08 µM,0.349
same,relative viability,COR-L 105; first compound 0.253 µM,0.327
same,relative viability,COR-L 105; first compound 0.8 µM,0.346
same,relative viability,COR-L 105; first compound 2.53 µM,0.298
same,relative viability,PC-3 [JPC-3]; first compound 0.08 µM,0.872
same,relative viability,PC-3 [JPC-3]; first compound 0.253 µM,0.849
same,relative viability,PC-3 [JPC-3]; first compound 0.8 µM,0.819
same,relative viability,PC-3 [JPC-3]; first compound 2.53 µM,0.719
same,relative viability,NCI-H661; first compound 0.08 µM,0.361
same,relative viability,NCI-H661; first compound 0.253 µM,0.378
same,relative viability,NCI-H661; first compound 0.8 µM,0.363
same,relative viability,NCI-H661; first compound 2.53 µM,0.341
same,relative viability,NCI-H2347; first compound 0.08 µM,0.59
same,relative viability,NCI-H2347; first compound 0.253 µM,0.466
same,relative viability,NCI-H2347; first compound 0.8 µM,0.411
same,relative viability,NCI-H2347; first compound 2.53 µM,0.481
same,relative viability,NCI-H2085; first compound 0.08 µM,0.886
same,relative viability,NCI-H2085; first compound 0.253 µM,0.684
same,relative viability,NCI-H2085; first compound 0.8 µM,0.56
same,relative viability,NCI-H2085; first compound 2.53 µM,0.469
same,relative viability,CAL-12T; first compound 0.08 µM,0.346
same,relative viability,CAL-12T; first compound 0.253 µM,0.302
same,relative viability,CAL-12T; first compound 0.8 µM,0.234
same,relative viability,CAL-12T; first compound 2.53 µM,0.211
same,relative viability,LK-2; first compound 0.08 µM,0.164
same,relative viability,LK-2; first compound 0.253 µM,0.176
same,relative viability,LK-2; first compound 0.8 µM,0.188
same,relative viability,LK-2; first compound 2.53 µM,0.148
same,relative viability,NCI-H1793; first compound 0.08 µM,0.347
same,relative viability,NCI-H1793; first compound 0.253 µM,0.276
same,relative viability,NCI-H1793; first compound 0.8 µM,0.257
same,relative viability,NCI-H1793; first compound 2.53 µM,0.182
same,relative viability,H3255; first compound 0.08 µM,0.951
same,relative viability,H3255; first compound 0.253 µM,0.511
same,relative viability,H3255; first compound 0.8 µM,0.593
same,relative viability,H3255; first compound 2.53 µM,0.65
same,relative viability,NCI-H2228; first compound 0.08 µM,0.283
same,relative viability,NCI-H2228; first compound 0.253 µM,0.267
same,relative viability,NCI-H2228; first compound 0.8 µM,0.297
same,relative viability,NCI-H2228; first compound 2.53 µM,0.268
same,relative viability,NCI-H1651; first compound 0.08 µM,0.7
same,relative viability,NCI-H1651; first compound 0.253 µM,0.648
same,relative viability,NCI-H1651; first compound 0.8 µM,0.682
same,relative viability,NCI-H1651; first compound 2.53 µM,0.565
same,relative viability,NCI-H1915; first compound 0.08 µM,0.404
same,relative viability,NCI-H1915; first compound 0.253 µM,0.322
same,relative viability,NCI-H1915; first compound 0.8 µM,0.342
same,relative viability,NCI-H1915; first compound 2.53 µM,0.374
same,relative viability,NCI-H1437; first compound 0.08 µM,0.456
same,relative viability,NCI-H1437; first compound 0.253 µM,0.444
same,relative viability,NCI-H1437; first compound 0.8 µM,0.431
same,relative viability,NCI-H1437; first compound 2.53 µM,0.371
same,relative viability,EKVX; first compound 0.08 µM,0.408
same,relative viability,EKVX; first compound 0.253 µM,0.357
same,relative viability,EKVX; first compound 0.8 µM,0.347
same,relative viability,EKVX; first compound 2.53 µM,0.335
same,relative viability,LXF-289; first compound 0.08 µM,0.223
same,relative viability,LXF-289; first compound 0.253 µM,0.155
same,relative viability,LXF-289; first compound 0.8 µM,0.18
same,relative viability,LXF-289; first compound 2.53 µM,0.161
same,relative viability,NCI-H1395; first compound 0.08 µM,0.778
same,relative viability,NCI-H1395; first compound 0.253 µM,0.856
same,relative viability,NCI-H1395; first compound 0.8 µM,0.872
same,relative viability,NCI-H1395; first compound 2.53 µM,0.756
